Patent publication US9771337B2, “Neprilysin inhibitors” (THERAVANCE BIOPHARMA R&D IP, LLC, priority 2011, dated 2017)

These compounds were tested against T1, human NEP (Homo sapiens, UniProt P08473) (assay: In vitro enzyme inhibition assay, inhibitor potency at human NEP). Settings: pKi values at human NEP; recombinant human NEP, fluorogenic peptide substrate 10 μM, 37° C.
T1 construct: purchased R&D Systems, Minneapolis, Minn; 1182-ZN
T1 sequence (P08473 whole entry): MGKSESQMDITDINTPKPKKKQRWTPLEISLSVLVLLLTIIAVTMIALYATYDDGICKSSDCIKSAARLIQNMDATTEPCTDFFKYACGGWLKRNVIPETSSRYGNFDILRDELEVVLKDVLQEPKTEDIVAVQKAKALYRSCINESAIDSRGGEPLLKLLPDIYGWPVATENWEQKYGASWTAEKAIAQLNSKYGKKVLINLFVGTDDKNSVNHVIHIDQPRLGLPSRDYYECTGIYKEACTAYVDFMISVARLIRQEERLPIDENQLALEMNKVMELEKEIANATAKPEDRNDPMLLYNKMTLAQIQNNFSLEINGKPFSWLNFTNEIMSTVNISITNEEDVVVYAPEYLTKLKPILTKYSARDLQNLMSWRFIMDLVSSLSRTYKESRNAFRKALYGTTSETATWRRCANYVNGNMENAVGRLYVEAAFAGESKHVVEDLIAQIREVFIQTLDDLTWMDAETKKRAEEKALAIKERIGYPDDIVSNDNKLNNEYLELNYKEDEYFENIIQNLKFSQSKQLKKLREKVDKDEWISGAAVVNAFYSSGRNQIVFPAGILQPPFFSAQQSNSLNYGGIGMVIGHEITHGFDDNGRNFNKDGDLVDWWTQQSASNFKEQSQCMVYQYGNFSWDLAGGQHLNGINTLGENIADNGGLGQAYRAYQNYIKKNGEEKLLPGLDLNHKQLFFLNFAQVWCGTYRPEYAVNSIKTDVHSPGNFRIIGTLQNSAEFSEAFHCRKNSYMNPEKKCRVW
Format: biochemical
Experimental: The inhibitory activities of compounds at human and rat neprilysin (EC 3.4.24.11; NEP) and human angiotensin converting enzyme (ACE) were determined using in vitro assays as described below.
Recombinant human NEP and recombinant human ACE were obtained commercially (R&D Systems, Minneapolis, Minn., catalog numbers 1182-ZN and 929-ZN, respectively). The fluorogenic peptide substrate Mca-D-Arg-Arg-Leu-Dap-(Dnp)-OH (Medeiros et al. (1997) Braz. J. Med. Biol. Res. 30:1157-62; Anaspec, San Jose, Calif.) and Abz-Phe-Arg-Lys(Dnp)-Pro-OH (Araujo et al. (2000) Biochemistry 39:8519-8525; Bachem, Torrance, Calif.) were used in the NEP and ACE assays respectively.
The assays were performed in 384-well white opaque plates at 37° C. using the fluorogenic peptide substrates at a concentration of 10 μM in Assay Buffer (NEP: 50 mM HEPES, pH 7.5, 100 mM NaCl, 0.01% polyethylene glycol sorbitan monolaurate (Tween-20), 10 μM ZnSO4; ACE: 50 mM HEPES, pH 7.5, 100 mM NaCl, 0.01% Tween-20, 1 μM ZnSO4).
Test compounds were assayed over the range of concentrations from […] to 20 μM. Test compounds were added to the enzymes and incubated for 30 minute at 37° C. prior to initiating the reaction by the addition of substrate. Reactions were terminated after 20 minutes of incubation at 37° C. by the addition of glacial acetic acid to a final concentration of 3.6% (v/v).
Plates were read on a fluorometer with excitation and emission wavelengths set to 320 nm and 405 nm, respectively. Inhibition constants were obtained by nonlinear regression of the data using the equation (GraphPad Software, Inc., San Diego, Calif.): v=v0/[1+(I/K′)] where v is the reaction rate, v0 is the uninhibited reaction rate, I is the inhibitor concentration and K′ is the apparent inhibition constant.
Compounds of the invention were tested in this assay and found to have pKi values at human NEP as follows.
`CCCc1nc2c(C)cc(C(=O)N[C@H](Cc3ccccc3)[C@@H](O)C(=O)O)cc2n1Cc1ccc(Br)nc1` [Example 5-2, (2R,3R)-3-{[3-(6-Bromo-pyridin-3-ylmethyl)-7-methyl-2-propyl-3H-benzoimidazole-5-carbonyl]-amino}-2-hydroxy-4-phenyl-butyric acid] showed a Ki of 12.6 to 100 nM. `CCCc1nc2c(C)cc(C(=O)N[C@H](Cc3ccccc3)[C@@H](O)C(=O)O)cc2n1Cc1cccnc1` [Example 5-3, (2R,3R)-2-Hydroxy-3-[(7-methyl-2-propyl-3-pyridin-3-ylmethyl-3H-benzoimidazole-5-carbonyl)-amino]-4-phenyl-butyric acid] showed a Ki of 12.6 to 100 nM. For `CCCc1nc2c(C)cc(C(=O)N[C@H](Cc3ccccc3)[C@@H](O)C(=O)O)cc2n1CC(=O)O` [Example 5-5, (2R,3R)-3-[(3-Carboxymethyl-7-methyl-2-propyl-3H-benzoimidazole-5-carbonyl)-amino]-2-hydroxy-4-phenyl-butyric acid], the Ki was 12.6 to 100 nM. With `CCCc1nc2c(C)cc(C(=O)N[C@H](Cc3ccccc3)[C@@H](O)C(=O)O)cc2n1Cc1ccccc1OC` [Example 5-6, (2R,3R)-2-Hydroxy-3-{[3-(2-methoxy-benzyl)-7-methyl-2-propyl-3H-benzoimidazole-5-carbonyl]-amino}-4-phenyl-butyric acid] the Ki was 12.6 to 100 nM. Compound `CCCc1nc2c(C)cc(C(=O)N[C@H](Cc3ccccc3)[C@@H](O)C(=O)O)cc2n1Cc1ccc(OC)cc1` [Example 5-7, (2R,3R)-2-Hydroxy-3-{[3-(4-methoxy-benzyl)-7-methyl-2-propyl-3H-benzoimidazole-5-carbonyl]-amino}-4-phenyl-butyric acid] has a Ki of 12.6 to 100 nM. Work on `CCCc1nc2c(C)cc(C(=O)N[C@H](Cc3ccccc3)[C@@H](O)C(=O)O)cc2n1CC(N)=O` [Example 5-8, (2R,3R)-3-[(3-Carbamoylmethyl-7-methyl-2-propyl-3H-benzoimidazole-5-carbonyl)-amino]-2-hydroxy-4-phenyl-butyric acid] yielded a Ki of 12.6 to 100 nM. For `CCc1nc2c(Cl)cc(C(=O)N[C@H](Cc3ccccc3)[C@@H](O)C(=O)O)cc2[nH]1` [Example 5-9, (2R,3R)-3-[(7-Chloro-2-ethyl-3H-benzoimidazole-5-carbonyl)-amino]-2-hydroxy-4-phenyl-butyric acid], the Ki was 12.6 to 100 nM. In the case of `O=C(N[C@H](Cc1ccccc1)[C@@H](O)C(=O)O)c1ccc2nn[nH]c2c1` [Example 5-11, (2R,3R)-3-[(3H-Benzotriazole-5-carbonyl)-amino]-2-hydroxy-4-phenyl-butyric acid], the Ki is reported as 12.6 to 100 nM. With `O=C(N[C@H](Cc1ccccc1)[C@@H](O)C(=O)O)c1cc(Cl)c2nn[nH]c2c1` [Example 5-13, (2R,3R)-3-[(7-Chloro-3H-benzotriazole-5-carbonyl)-amino]-2-hydroxy-4-phenyl-butyric acid] the Ki was 12.6 to 100 nM. Compound `Cc1cc(C(=O)N[C@H](Cc2ccccc2)[C@@H](O)C(=O)O)cc2[nH]nnc12` [Example 5-15, (2R,3R)-2-Hydroxy-3-[(7-methyl-3H-benzotriazole-5-carbonyl)-amino]-4-phenyl-butyric acid] has a Ki of 12.6 to 100 nM. With `O=C(N[C@H](Cc1ccccc1)[C@@H](O)C(=O)O)c1cc(F)c2[nH]nnc2c1` [Example 5-16, (2R,3R)-3-[(7-Fluoro-1H-benzotriazole-5-carbonyl)-amino]-2-hydroxy-4-phenyl-butyric acid] the Ki was 12.6 to 100 nM. `O=C(O)c1cnc(C(=O)N[C@H](Cc2ccccc2)[C@@H](O)C(=O)O)cn1` [Example 5-18, 5-((1R,2R)-1-Benzyl-2-carboxy-2-hydroxy-ethylcarbamoyl)-pyrazine-2-carboxylic acid] was tested, and the Ki was 12.6 to 100 nM. For `O=C(N[C@H](Cc1ccccc1)[C@@H](O)C(=O)O)c1cnc(-c2ccccc2C(=O)O)cn1` [Example 5-19, 2-[5-((1R,2R)-1-Benzyl-2-carboxy-2-hydroxy-ethylcarbamoyl)-pyrazin-2-yl]-benzoic acid], the Ki was 12.6 to 100 nM. `O=C(N[C@H](Cc1ccccc1)[C@@H](O)C(=O)O)c1ccc(C(=O)O)nc1` [Example 5-20, 5-((1R,2R)-1-Benzyl-2-carboxy-2-hydroxy-ethylcarbamoyl)-pyridine-2-carboxylic acid] was tested, and the Ki was 12.6 to 100 nM.
